Each structure is given as a SMILES string.

This note sets out measurements from US9284297B2, “Halofuginone analogs for inhibition of tRNA synthetases and uses thereof” (President and Fellows of Harvard College, priority 2008, dated 2016).

Experiment [1] deals with TGFβ-induced Smad phosphorylation and lymphocyte responses to TGFβ. Briefly: TGFβ signaling in T and B cells. It is filed as cell-based, murine. As to conditions: low dose HF; 10 μM SB-431542. As for the experimental part: FIG. 10. […] FIG. 10A is a set of FACS analyses of CD4^+ CD25^− T cells activated in Th1 or Th2 polarizing conditions, either in the presence or absence of TGFβ. DMSO, 10 nM HF, 10 nM MAZ1310, or 10 μM SB-431542 added as indicated at the time of activation. Intracellular cytokine staining was performed on expanded T cells on day 5.
FIG. 10D depicts western blot analyses of purified CD4^+ CD25^− T cells treated with DMSO, 40 nM MAZ1310, titrating concentrations of HF (2.5-40 nM) or 10 μM SB-431542 for 30 minutes in complete medium supplemented with 0.1% fetal calf serum. T cells were then activated in the presence or absence of 3 ng/ml TGFβ. Whole cell extracts were prepared after 1 hour of stimulation and western blot analyses were performed using the indicated antibodies.
Th17 differentiation is synergistically regulated by TGFβ and the pro-inflammatory cytokines IL-6 and IL-21. […] Since STAT3 is the major transducer of IL-6 and IL-21 signaling, the kinetics of STAT3 phosphorylation in HF-treated T cells were examined.
Whole cell lysates were generated from T cells activated for the indicated times. For STAT3 and Smad2/3 western blots cells were harvested, washed in PBS and lysed in 50 mM Tris, pH 7.4, 0.1% SDS, 1% Triton-X100, 140 mM NaCl, 1 mM EDTA, 1 mM EGTA supplemented with protease inhibitors tablets (Roche, Germany), 1 mM NaF and 1 mM Na3VO4. […]

The target in experiment [2] is T1, Prolyl-tRNA synthetase (EPRS) purified from rabbit liver (Oryctolagus cuniculus, UniProt G1T2I4).
T1 construct: Prolyl-tRNA synthetase (EPRS) purified from rabbit liver; from tissue; host or cells: rabbit liver
T1 sequence (G1T2I4 1-1447): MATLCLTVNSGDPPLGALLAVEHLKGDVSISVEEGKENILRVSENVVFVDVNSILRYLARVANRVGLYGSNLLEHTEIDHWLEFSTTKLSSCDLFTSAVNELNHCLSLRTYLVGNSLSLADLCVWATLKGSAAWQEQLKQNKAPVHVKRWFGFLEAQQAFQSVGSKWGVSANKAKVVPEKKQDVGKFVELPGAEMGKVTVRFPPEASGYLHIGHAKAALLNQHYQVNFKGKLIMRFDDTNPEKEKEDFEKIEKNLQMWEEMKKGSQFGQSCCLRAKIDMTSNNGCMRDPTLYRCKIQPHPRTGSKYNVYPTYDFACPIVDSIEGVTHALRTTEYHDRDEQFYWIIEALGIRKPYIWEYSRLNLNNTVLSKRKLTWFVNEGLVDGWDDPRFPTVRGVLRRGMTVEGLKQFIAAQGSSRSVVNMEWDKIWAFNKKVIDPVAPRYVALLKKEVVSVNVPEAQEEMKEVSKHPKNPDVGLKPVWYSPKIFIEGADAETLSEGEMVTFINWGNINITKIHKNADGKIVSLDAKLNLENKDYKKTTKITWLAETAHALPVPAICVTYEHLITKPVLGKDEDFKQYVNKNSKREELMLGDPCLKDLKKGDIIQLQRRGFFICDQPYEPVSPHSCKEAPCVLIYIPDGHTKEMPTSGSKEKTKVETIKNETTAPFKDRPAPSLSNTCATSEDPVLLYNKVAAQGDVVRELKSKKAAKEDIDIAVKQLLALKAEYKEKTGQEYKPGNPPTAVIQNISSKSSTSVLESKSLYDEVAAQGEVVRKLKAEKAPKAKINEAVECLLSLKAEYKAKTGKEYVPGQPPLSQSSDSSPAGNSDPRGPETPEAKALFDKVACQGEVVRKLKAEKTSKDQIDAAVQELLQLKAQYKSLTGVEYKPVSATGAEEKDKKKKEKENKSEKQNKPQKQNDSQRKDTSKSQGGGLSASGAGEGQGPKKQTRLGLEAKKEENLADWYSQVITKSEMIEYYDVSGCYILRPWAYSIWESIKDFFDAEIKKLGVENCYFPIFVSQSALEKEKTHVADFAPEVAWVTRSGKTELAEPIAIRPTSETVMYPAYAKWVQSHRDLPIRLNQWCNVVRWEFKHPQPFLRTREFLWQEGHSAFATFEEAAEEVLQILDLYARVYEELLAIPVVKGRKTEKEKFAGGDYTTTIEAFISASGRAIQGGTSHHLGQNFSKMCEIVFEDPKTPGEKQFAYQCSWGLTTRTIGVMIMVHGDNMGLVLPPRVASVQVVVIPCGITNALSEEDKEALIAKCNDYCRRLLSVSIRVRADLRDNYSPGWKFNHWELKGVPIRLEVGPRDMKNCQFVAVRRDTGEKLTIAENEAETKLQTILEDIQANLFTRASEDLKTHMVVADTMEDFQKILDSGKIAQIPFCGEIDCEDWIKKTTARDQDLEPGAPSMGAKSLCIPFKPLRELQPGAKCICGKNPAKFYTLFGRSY
Briefly: Purified EPRS, 14C-labeled proline incorporation into tRNA. It is filed as biochemical. As to conditions: 10 μM, 4 μM, 1 μM HF. As for the experimental part: Purified enzyme was incubated with 100 μg/ml bovine tRNA, 50 μM ^14C-labeled proline, 5 mM ATP, and 10 mM MgCl2 for 20 minutes. Charged tRNA was isolated by precipitation on Whatman filter paper and washing with cold 5% TCA. TCA precipitable counts were assayed by scintillation counting.

Consider `O=C(CC1NCCCC1O)Cn1cnc2cc(Br)c(Cl)cc2c1=O` (centres unmarked) [Compound 1, 7-bromo-6-chloro-3-[3-(3-hydroxy-2-piperidinyl)-2-oxopropyl]-4(3H)-quinazolinone], for which the “effect on TGFβ-induced Smad phosphorylation and other lymphocyte responses to TGFβ” value in experiment [1] is given as “inhibited neither TGFβ-induced Smad phosphorylation nor a variety of other lymphocyte responses to TGFβ”. The “inhibition of purified EPRS (TCA precipitable counts)” value in experiment [2] is reported as “directly inhibits purified mammalian EPRS”.
